Measurements published in patent publication US6835371B1 (priority 1997, dated 2004).
Values joined by “and” are separate entries in the source; they are usually repeats but may differ in a detail not shown here. Equal entries are not always repeated. Where two headings read alike, the source gives them in different places.

Experiments:
[1] = target: T1, human dopamine transporter (hDAT) (Homo sapiens, UniProt Q01959); experiment: cell-based
[2] = target: T2, human norepinephrine transporter (hNET) (Homo sapiens, UniProt P23975); experiment: cell-based
[3] = target: T2, human norepinephrine transporter (hNET); experiment: biochemical; assay type: binding
[4] = target: T1, human dopamine transporter (hDAT); experiment: biochemical; assay type: binding
[5] = system: male Swiss-Webster mice; experiment: animal or person; assay type: in vivo; conditions: for ED50: Mus musculus, read-out: ED50 (dose producing ½ maximal stimulant activity)
[6] = system: male Swiss-Webster mice; experiment: Cocaine interaction study (locomotor activity); assay type: in vivo; conditions: 20 mg/kg cocaine IP; for Doses with significant differences against the cocaine group (p<0.05): planned comparisons on log10 horizontal activity counts; for AD50 (dose attenuating cocaine-induced stimulation by 50%): IP, 30-min period
[7] = read-out: [3H]Dopamine Uptake IC50
[8] = read-out: [125I]RTI-55 binding Ki, NET
[9] = read-out: [125I]RTI-55 binding Ki, DAT
[10] = HEK-hNET cells, read-out: [3H]NE Uptake IC50
[11] = Table 2, read-out: Reuptake [3H]NE (Ki ± SD)
[12] = HEK-hDAT cells, read-out: [3H]Dopamine Uptake IC50
[13] = Table 2, read-out: Reuptake [3H]DA (Ki ± SD)
[14] = HEK-hNET cells, read-out: [125I]RTI-55 binding Ki, NET

T1 sequence (Q01959 whole entry): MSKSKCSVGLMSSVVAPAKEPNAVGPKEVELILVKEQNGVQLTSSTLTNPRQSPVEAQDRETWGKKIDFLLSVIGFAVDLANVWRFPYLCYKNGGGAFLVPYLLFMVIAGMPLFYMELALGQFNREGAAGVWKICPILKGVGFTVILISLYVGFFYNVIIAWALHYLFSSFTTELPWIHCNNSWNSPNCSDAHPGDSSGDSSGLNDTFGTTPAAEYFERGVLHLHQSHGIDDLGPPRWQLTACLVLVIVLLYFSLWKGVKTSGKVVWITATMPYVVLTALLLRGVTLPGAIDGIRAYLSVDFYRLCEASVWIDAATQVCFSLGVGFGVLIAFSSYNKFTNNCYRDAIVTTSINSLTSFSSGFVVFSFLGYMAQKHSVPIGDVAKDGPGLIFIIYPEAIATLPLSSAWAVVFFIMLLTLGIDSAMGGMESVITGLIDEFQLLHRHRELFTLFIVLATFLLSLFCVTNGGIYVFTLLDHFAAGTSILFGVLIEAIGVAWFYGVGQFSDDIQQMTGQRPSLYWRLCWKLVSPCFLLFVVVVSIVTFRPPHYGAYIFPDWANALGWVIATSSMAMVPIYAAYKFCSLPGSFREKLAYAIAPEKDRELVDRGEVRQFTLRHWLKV
T2 sequence (P23975 whole entry): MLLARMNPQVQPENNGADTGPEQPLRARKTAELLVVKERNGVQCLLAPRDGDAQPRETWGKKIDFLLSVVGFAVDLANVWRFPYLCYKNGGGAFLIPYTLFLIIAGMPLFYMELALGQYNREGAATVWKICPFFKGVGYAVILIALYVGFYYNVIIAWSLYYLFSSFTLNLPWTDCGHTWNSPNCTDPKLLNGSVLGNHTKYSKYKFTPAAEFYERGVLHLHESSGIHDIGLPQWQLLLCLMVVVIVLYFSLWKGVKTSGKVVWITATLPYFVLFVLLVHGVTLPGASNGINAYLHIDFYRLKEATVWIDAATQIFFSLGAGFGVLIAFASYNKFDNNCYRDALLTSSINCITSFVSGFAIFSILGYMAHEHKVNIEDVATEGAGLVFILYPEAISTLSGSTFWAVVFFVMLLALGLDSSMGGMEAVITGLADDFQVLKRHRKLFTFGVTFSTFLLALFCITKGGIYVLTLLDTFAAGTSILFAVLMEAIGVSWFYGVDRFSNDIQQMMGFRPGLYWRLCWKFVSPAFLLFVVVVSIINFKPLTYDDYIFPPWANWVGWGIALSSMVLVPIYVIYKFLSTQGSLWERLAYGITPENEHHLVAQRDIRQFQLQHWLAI

Compound | Discrimination Ratio DAT Binding/Reuptake [1] | Discrimination ratio uptake/binding (DA) [1] | Hill coefficient [3] | Binding discrimination ratio NET/DAT [4] | Binding discrimination ratio SERT/DAT [4] | Hill coefficient [4] | Ki ([4]; [125I]RTI-55 binding Ki, DAT) | IC50 [1, 7] [nM] | Ki [3, 8] [µM] | Ki [4, 9] [µM] | IC50 ([2]; read-out: [3H]NE Uptake IC50) | other results
Fc1ccc(C(OCCCCN2CCN(c3ccc(F)cc3)CC2)c2ccc(F)cc2)cc1 [Compound 31527] | 23.0 | 23.0 | −0.72 ± 0.05 | 7.8 | 1.3 | −0.84 ± 0.05 | 0.0265 µM |  |  |  |  | IC50 [1]: 610 nM; Ki [1]: 610 ± 150 nM; Ki [2]: 225 ± 28 nM; IC50 ([2]; [3H]NE Uptake IC50): 225 ± 28 nM; Ki ([3]; [125I]RTI-55 binding Ki, NET): 0.207 µM
O=C1CN(CCCCOC(c2ccc(F)cc2)c2ccc(F)cc2)CCN1 [Compound 31524] |  | 0.6 |  | >2.4 | 0.4 | −064 ± 0.03 |  | 2290 | > 10 | 4.1 |  | Ki ([1]; read-out: Reuptake [3H]DA (Ki ± SD)): 2290 ± 200 nM; Ki ([2]; read-out: Reuptake [3H]NE (Ki ± SD)): > 10000 nM
Fc1ccc(C(OCCCCN2CCNC(c3ccccc3)C2)c2ccc(F)cc2)cc1 (stereo not drawn) [Compound 31533] |  | 144.4 |  | 49.9 | 19.6 |  |  |  |  |  |  | Ki [1]: 550 ± 140 nM; Ki [2]: 290 ± 130 nM; ED50 ([5]; ip): 1.52 mg/kg; Maximal effect/cocaine maximal effect ratio (ME/CME) ([5]; mouse, in vivo): 0.30; Maximum effect, horizontal activity ([5]; mouse, in vivo): 1648.6 counts/10 min; Dose at estimated maximum effect ([5]; mouse, in vivo, ip): 10.26 mg/kg; Doses with significant differences against the cocaine group (p<0.05) [6]: 30 mg/kg
OC1(c2ccccc2)CCN(CCCCOC(c2ccc(F)cc2)c2ccc(F)cc2)CC1 [Compound 31531] |  | 15.0 | −0.73 ± 0.03 | 8.4 | 2.8 | −0.63 ± 0.06 | 0.0064 µM |  |  |  |  | IC50 [1]: 96 nM; Ki [1]: 96 ± 11 nM; IC50 [2, 10]: 179 nM; Ki [2, 11]: 179 ± 47 nM; Ki ([3]; [125I]RTI-55 binding Ki, NET): 0.054 µM
Fc1ccc(C(OCCCCN2CCN(c3ccccc3Cl)CC2)c2ccc(F)cc2)cc1 [Compound 31626] | 4.9 |  | −1.39 ± 0.23 | 8.1 | 1.3 | −1.11 ± 0.08 |  | 328 | 0.54 | 0.067 | 290 nM and 299 nM | 
OC1(c2ccc(Br)cc2)CCN(CCCCOC(c2ccc(F)cc2)c2ccc(F)cc2)CC1 [Compound 31530] |  | 110.5 | −0.97 ± 0.30 | 64.1 | 9.7 | −0.59 ± 0.06 | 0.0039 µM and 0.01 µM |  |  |  |  | IC50 [1, 12]: 431 nM; Ki [1, 13]: 431 ± 88 nM; IC50 [2, 10]: 1870 nM; Ki [2, 11]: 1870 ± 670 nM; ED50 ([5]; ip): 2.42 mg/kg; Maximal effect/cocaine maximal effect ratio (ME/CME) ([5]; mouse, in vivo): 0.38; Maximum effect, horizontal activity ([5]; mouse, in vivo): 2132.6 counts/10 min; Dose at estimated maximum effect ([5]; mouse, in vivo, ip): 6.00 mg/kg; AD50 (dose attenuating cocaine-induced stimulation by 50%) [6]: 15.75 mg/kg; Doses with significant differences against the cocaine group (p<0.05) [6]: 30 mg/kg
Fc1ccc(C(OCCCCN2CCN(c3cccc(C(F)(F)F)c3)CC2)c2ccc(F)cc2)cc1 [Compound 31532] | 11.7 | 11.7 | −0.80 ± 0.03 | 6.8 | 6.8 | −0.87 ± 0.05 | 0.0325 µM |  | 0.222 | 0.0325 | 310 nM | IC50 [1]: 380 nM; Ki [1]: 380 ± 130 nM; Ki [2]: 310 ± 100 nM; IC50 ([2]; [3H]NE Uptake IC50): 310 nM; ID50 (dose producing ½ maximal depressant activity) ([5]; IP, 20 min pretreatment, 0-30 min, descending portion 10 to 100 mg/kg): 112.95 mg/kg; Doses with significant differences against the vehicle group (p<0.05) ([5]; mouse, in vivo, ip): 100 mg/kg; Ki ([3]; [125I]RTI-55 binding Ki, NET): 0.222 µM; AD50 (dose attenuating cocaine-induced stimulation by 50%) [6]: 18.35 mg/kg; Doses with significant differences against the cocaine group (p<0.05) [6]: 100 mg/kg
NC(=O)C1CCCN(CCCCOC(c2ccc(F)cc2)c2ccc(F)cc2)C1 (stereo not drawn) [Compound 31628] | 0.6 |  | −1.48 ± 0.70 | 6.1 | 1.4 | −1.02 ± 0.16 |  | 56 | 0.578 | 0.094 | 158 nM | 
COc1ccccc1N1CCN(CCCCOC(c2ccc(F)cc2)c2ccc(F)cc2)CC1 [Compound 31654] | 11.5 |  | −0.59 ± 0.02 | 3.5 | 9.7 | −0.88 ± 0.09 |  | 301 | 0.092 | 0.0262 | 176 nM | 
OC1CCN(CCCCOC(c2ccc(F)cc2)c2ccc(F)cc2)CC1 [Compound 31648] | 0.9 |  | −0.75 ± 0.06 | 5.4 | 3.7 | −0.69 ± 0.07 |  | 101 | 0.61 | 0.124 ± 0.027 | 143 nM | 
Fc1ccc(C(OCCCCN2CCN(c3ccccc3)CC2)c2ccc(F)cc2)cc1 [Compound 31653] | 23.2 |  | −0.93 ± 0.17 | 3.3 | 0.8 | −1.14 ± 0.10 | 0.0609 µM |  |  |  |  | IC50 [1]: 1410 nM; IC50 ([2]; [3H]NE Uptake IC50): 56.3 nM; Ki ([3]; [125I]RTI-55 binding Ki, NET): 0.203 µM
Fc1ccc(C(OCCCCN2CCN(c3cccc(Cl)c3)CC2)c2ccc(F)cc2)cc1 [Compound 31651] | 9.5 |  |  | 1.7 | 0.8 |  |  | 1670 ± 440 | 0.3 ± 0.07 | 0.175 ± 0.071 | 189 ± 89 nM | 
Fc1ccc(C(OCCCCN2CCN(c3ccc(Cl)cc3)CC2)c2ccc(F)cc2)cc1 [Compound 31652] | 23.4 |  | −0.80 ± 0.08 | 7.6 | 0.7 | −1.08 ± 0.18 | 0.05 µM |  |  |  | 390 nM | IC50 [1]: 1170 nM; IC50 ([2]; [3H]NE Uptake IC50): 390 nM; Ki ([3]; [125I]RTI-55 binding Ki, NET): 0.38 µM and 3.8 µM
OC1(c2ccc(Cl)cc2)CCN(CCCCOC(c2ccc(F)cc2)c2ccc(F)cc2)CC1 [Compound 31625] | 95.2 |  | −0.99 ± 0.22 | 51.7 | 2380 | −0.74 ± 0.25 | 0.0042 µM |  |  |  |  | IC50 ([1]; HEK-hDAT cells, text of Examples 20 and 24, read-out: [3H]Dopamine Uptake IC50): 400 nM; IC50 [2, 10]: 800 nM; Ki [3, 14]: 0.217 µM
OC1CCCN(CCCCOC(c2ccc(F)cc2)c2ccc(F)cc2)C1 (stereo not drawn) [Compound 31650] | 1.3 |  | −0.66 ± 0.05 | 6.7 | 4.8 | −0.82 ± 0.15 |  | 114 | 0.611 | 0.091 | 310 nM | 
CC(=O)C1(c2ccccc2)CCN(CCCCOC(c2ccc(F)cc2)c2ccc(F)cc2)CC1 [Compound 31525] |  | 47.5 | −0.71 ± 0.06 | 5.3 | 5.8 | −0.61 ± 0.01 | 0.0217 µM |  |  |  |  | IC50 [1, 12]: 1030 nM; Ki [1, 13]: 1030 ± 330 nM; IC50 [2, 10]: 2550 nM; Ki [2, 11]: 2550 ± 950 nM; Ki [3, 14]: 0.114 µM
O=C1c2ccccc2C(=O)N1CCCCN1CCC(O)(c2ccc(Br)cc2)CC1 [Compound 31627] |  |  |  | 1 | >0.2 |  |  | >10000 |  |  | >10000 nM | Ki ([3]; HEK-hNET cells, bound given in μM, read-out: [125I]RTI-55 binding Ki, NET): > 10 µM; Ki ([4]; HEK-hDAT cells, bound given in μM, read-out: [125I]RTI-55 binding Ki, DAT): > 10 µM
O=c1[nH]c2ccccc2n1C1CCN(CCCCOC(c2ccc(F)cc2)c2ccc(F)cc2)CC1 [Compound 31649] | 323 |  | −0.47 ± 0.03 | 16.8 | 2.9 | −0.63 ± 0.23 |  | 426 | 0.0222 | 0.00132 | 132 nM | 
